# The source made the active and inactive calls. The calls are words filed in the database; no cut-off is given here.
# Tests used:
# [1] = target: T1, D(1A) dopamine receptor (Homo sapiens, UniProt P21728); assay: Displacement of [3H]SCH23390 from human dopamine D1 receptor expressed in HEKT cell membranes
# [2] = target: T2, D(3) dopamine receptor (Homo sapiens, UniProt P35462); assay: Displacement of [3H]N-Methylspiperone from human dopamine D3 receptor expressed in HEKT cell membranes
# [3] = target: T3, D(4) dopamine receptor (Homo sapiens, UniProt P21917); assay: Displacement of [3H]N-Methylspiperone from human dopamine D4 receptor expressed in HEK cell membranes
# T3 sequence (P21917 whole entry): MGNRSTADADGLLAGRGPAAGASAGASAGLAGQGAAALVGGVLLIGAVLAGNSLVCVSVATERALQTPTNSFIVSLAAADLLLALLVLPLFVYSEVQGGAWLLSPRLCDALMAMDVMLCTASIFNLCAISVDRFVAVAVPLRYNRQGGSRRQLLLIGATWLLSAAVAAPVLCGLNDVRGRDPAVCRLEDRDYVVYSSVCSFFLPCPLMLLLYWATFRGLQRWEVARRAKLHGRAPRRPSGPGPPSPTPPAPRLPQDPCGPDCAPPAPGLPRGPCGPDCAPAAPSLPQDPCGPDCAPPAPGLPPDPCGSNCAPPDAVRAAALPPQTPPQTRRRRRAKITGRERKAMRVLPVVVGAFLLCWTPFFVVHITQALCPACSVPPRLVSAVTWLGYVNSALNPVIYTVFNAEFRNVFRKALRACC
# [4] = organism: Homo sapiens; assay: Selectivity ratio of Ki for human dopamine D1 receptor expressed in HEKT cell membranes to Ki for human dopamine D3 receptor expressed in HEKT cell membranes; type: cell-based
# [5] = target: T4, D(2) dopamine receptor (Homo sapiens, UniProt P14416); assay: Inhibition of human dopamine D2 receptor expressed in HEKT cell membranes at 10 uM relative to control; type: cell-based
# [6] = target: T4, D(2) dopamine receptor; assay: Displacement of [3H]N-Methylspiperone from human dopamine D2 receptor expressed in fibroblasts
# [7] = organism: Homo sapiens; assay: Selectivity ratio of Ki for human dopamine D2 receptor expressed in fibroblasts to Ki for human dopamine D3 receptor expressed in HEKT cell membranes; type: cell-based
# [8] = target: T1, D(1A) dopamine receptor; assay: Inhibition of human dopamine D1 receptor expressed in HEKT cell membranes at 10 uM relative to control; type: cell-based
# [9] = target: T5, D(4) dopamine receptor (Homo sapiens) (UniProt P21917); assay: Inhibition of human dopamine D4 receptor expressed in HEKT cell membranes at 10 uM relative to control; type: cell-based
# T5 sequence (whole entry): T3 sequence (P21917 whole entry)
# [10] = target: T2, D(3) dopamine receptor; assay: Agonist activity at human dopamine D3 receptor assessed as beta-arrestin recruitment by Tango assay; type: functional
# [11] = target: T2, D(3) dopamine receptor; assay: Antagonist activity at human dopamine D3 receptor assessed as inhibition of beta-arrestin recruitment by Tango assay; type: functional
# T4 sequence (P14416 whole entry): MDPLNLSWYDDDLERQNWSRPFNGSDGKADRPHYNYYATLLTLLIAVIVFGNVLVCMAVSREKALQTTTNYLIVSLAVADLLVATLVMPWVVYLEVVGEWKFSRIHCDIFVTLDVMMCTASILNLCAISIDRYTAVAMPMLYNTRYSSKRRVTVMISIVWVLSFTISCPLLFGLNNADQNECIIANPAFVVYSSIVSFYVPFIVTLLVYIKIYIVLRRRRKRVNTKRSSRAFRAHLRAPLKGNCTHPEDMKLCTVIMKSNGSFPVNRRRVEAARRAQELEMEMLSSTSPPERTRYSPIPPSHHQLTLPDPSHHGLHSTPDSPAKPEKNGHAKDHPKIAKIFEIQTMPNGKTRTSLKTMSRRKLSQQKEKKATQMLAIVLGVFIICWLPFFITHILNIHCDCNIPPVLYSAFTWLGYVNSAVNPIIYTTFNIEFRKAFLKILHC
# T1 sequence (P21728 whole entry): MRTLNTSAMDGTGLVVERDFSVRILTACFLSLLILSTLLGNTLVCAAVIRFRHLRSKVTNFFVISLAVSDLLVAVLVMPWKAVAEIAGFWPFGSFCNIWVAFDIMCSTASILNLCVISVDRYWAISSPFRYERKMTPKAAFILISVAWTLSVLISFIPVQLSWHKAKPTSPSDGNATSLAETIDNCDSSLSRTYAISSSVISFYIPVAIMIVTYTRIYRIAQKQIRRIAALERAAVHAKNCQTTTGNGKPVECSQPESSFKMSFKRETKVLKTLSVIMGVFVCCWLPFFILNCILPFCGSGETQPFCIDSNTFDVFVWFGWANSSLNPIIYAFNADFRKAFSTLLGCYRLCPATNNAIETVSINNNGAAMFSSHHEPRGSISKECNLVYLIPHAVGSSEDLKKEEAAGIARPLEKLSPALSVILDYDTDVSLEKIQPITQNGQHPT
# T2 sequence (P35462 whole entry): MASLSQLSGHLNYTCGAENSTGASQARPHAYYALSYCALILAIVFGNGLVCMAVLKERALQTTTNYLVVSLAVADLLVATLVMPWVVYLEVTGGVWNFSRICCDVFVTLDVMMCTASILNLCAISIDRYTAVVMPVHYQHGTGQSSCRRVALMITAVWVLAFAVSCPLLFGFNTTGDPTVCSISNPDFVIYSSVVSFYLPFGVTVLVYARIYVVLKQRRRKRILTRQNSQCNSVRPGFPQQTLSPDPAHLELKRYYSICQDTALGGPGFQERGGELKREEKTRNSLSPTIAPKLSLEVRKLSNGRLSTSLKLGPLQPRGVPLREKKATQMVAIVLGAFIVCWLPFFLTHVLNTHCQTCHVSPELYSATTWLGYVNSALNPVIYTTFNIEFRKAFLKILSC
Structure (SMILES),Ki [1] [µM],Ki [2] [µM],Ki [3] [µM],inhibition [5] [%],Ki [6] [µM],inhibition [8] [%],inhibition [9] [%],Activity [10],EC50 [11] [µM],Ratio Ki [4],Ratio Ki [7]
COc1cc2c(cc1O)CN(CCCCNC(=O)c1ccc(I)cc1)CC2,1.6,0.01,1.5,< 50,,,,,,160,
COc1cc2c(cc1O)CN(CCCCNC(=O)c1ccc(C(N)=O)cc1)CC2,,0.028,,,0.86,< 50,< 50,,,,31
COc1cc2c(cc1O)CN(CCCCNC(=O)c1ccc(C#N)cc1)CC2,,0.0063,,< 50,,< 50,< 50,inactive,1.4,,
COc1ccc(C(=O)NCCCCN2CCc3cc(OC)c(O)cc3C2)cc1,,0.0059,0.56,< 50,,< 50,,inactive,0.36,,
COc1cc2c(cc1O)CN(CCCCNC(=O)c1ccc(Cl)cc1)CC2,0.68,0.0021,0.14,,1.1,,,,,323,524
COc1cccc(C(=O)NCCCCN2CCc3cc(OC)c(O)cc3C2)c1,,0.012,0.15,< 50,,< 50,,,,,
COc1cc2c(cc1OC)CN(CCCCNC(=O)c1ccc(C#N)cc1)CC2,,0.41,,< 50,,< 50,< 50,,,,

# Continued, in another order:
Ki [1] [µM],Ki [2] [µM],Ki [3] [µM],inhibition [5] [%],Ki [6] [µM],inhibition [8] [%],inhibition [9] [%],Activity [10],EC50 [11] [µM],Structure (SMILES),Ratio Ki [4],Ratio Ki [7]
0.8,0.0027,0.17,,0.7,,,,,COc1cc2c(cc1O)CN(CCCCNC(=O)c1ccc3ccccc3c1)CC2,296,260
0.8,0.0027,0.72,,0.8,,,,,COc1cc2c(cc1O)CN(CCCCNC(=O)c1ccc(-c3ccccc3)cc1)CC2,296,296
,0.0087,0.66,< 50,,< 50,,inactive,0.42,COc1cc2c(cc1O)CN(CCCCNC(=O)c1ccc(O)cc1)CC2,,
1.81,0.022,0.41,< 50,,,,,,COc1cc2c(cc1O)CN(CCCCNC(=O)c1ccnc3ccccc13)CC2,82,
0.5,0.0034,0.35,,> 10,,,,,COc1cc2c(cc1O)CN(CCCCNC(=O)c1ccc(Br)cc1)CC2,147,> 2940
,0.0044,0.095,< 50,,< 50,,inactive,0.49,COc1cc2c(cc1O)CN(CCCCNC(=O)c1ccc(F)cc1)CC2,,
,0.024,1.4,< 50,,< 50,,,,COc1cc2c(cc1O)CN(CCCCNC(=O)c1ccncc1)CC2,,
